The test system of one experiment is aldose reductase. Particulars: literature, in words; cited from earlier work.
In a further experiment the test system is accumulation of dulcitol. The experiment can be described thus: Lowering of dulcitol accumulation in lens, sciatic nerve and diaphragm of galactosemic rats (in vivo). Set-up: species or system rat (Sprague-Dawley, male). Particulars: for % lowering dulcitol accumulation in vivo, D: diaphragm. An excerpt:
Such experiments are exemplified hereinbelow after the listing of the following general comments pertaining to these experiments:
(a) Four or more groups of six male rats, 50-70 g, Sprague-Dawley strain, were used. The first group, the control group, was fed a mixture of laboratory chow (rodent Laboratory Chow, Purina) and glucose at 20% (w/w %) concentration. The untreated galactosemic group was fed a similar diet in which galactose is substituted for glucose. The third group was fed a diet prepared by mixing a given amount of the test compound with the galactose containing diet. The concentration of galactose in the diet of the treated groups was the same as that for the untreated galactosemic group.
(b) After four days, the animals were killed by decapitation. The eyeballs were removed and punctured with a razor blade; the freed lenses were rolled gently on filter paper and weighed. The sciatic nerves were dissected as completely as possible and weighed. Both tissues when frozen can be kept up to two weeks before being analyzed for dulcitol.
(c) The polyol determination was performed by a modification of the procedure of M. Kraml and L. Cosyns, Clin. Biochem., 2,373 (1969). Only two minor reagent changes were made: (a) The rinsing mixture was an aqueous 5% (w/v) trichloroacetic acid solution and (b) the stock solution was prepared by dissolving 25 mg of dulcitol in 100 ml of an aqueous trichloroacetic acid solution. [N.B.: For each experiment the average value found in the tissue from rats fed the glucose diet was subtracted from the individual values found in the corresponding tissue in galactose-fed rats to obtain the amount of polyol accumulated.] […] In the present case the procedure of Hayman and Kinoshita was modified in that the final chromatography step was omitted in the preparation of the enzyme from bovine lens.
The figures under L, N and D represent the percentage decrease of dulcitol accumulation in the tissues of the lens, sciatic nerve and diaphragm, respectively, for treated rats as compared to untreated rats.

The text below walks through data of patent publication US4672058A, “N[[5-(trifluoromethyl)-6-methoxy-1-naphthalenyl]-thioxomethyl]-N -methylglycinamides” (American Home Products Corporation, priority 1985, dated 1987).

Molecules are shown by their SMILES.

For the compound `O=C(O)CN1C(=O)c2cccc3cccc(c23)C1=O` [1,3-Dioxo-1H-benz[de]isoquinoline-2(3H)-acetic acid], the “inhibition of aldose reductase, as reported” value in the experiment on aldose reductase is listed as “effective inhibitor of aldose reductase”.
With `COc1ccc2c(C(=S)N(C)CC(N)=O)cccc2c1C(F)(F)F` [Compound 1, N-[[5-(trifluoromethyl)-6-methoxy-1-naphthalenyl]-thioxomethyl]-N-methylglycinamide], the “% lowering dulcitol accumulation in vivo, D” value in the experiment on accumulation of dulcitol (5 mg/kg/day in diet, 4 days) was found to be 66%. In addition, the “results compared with N-[[5-(trifluoromethyl)-6-methoxy-1-naphthalenyl]-thioxomethyl]-N-methylglycine (tolrestat)” value in the experiment with accumulation of dulcitol (dose of 5 mg/kg/day, in words) is recorded as “comparable results”.
Turning to `COc1ccc2c(C(=S)N(C)CC(=O)N(C)C)cccc2c1C(F)(F)F` [Compound 3, 2-[[[6-Methoxy-5-(trifluoromethyl)-1-naphthalenyl]thioxomethyl]methylamino]-N,N-dimethylacetamide], the “% lowering dulcitol accumulation in vivo, D” value in the experiment with accumulation of dulcitol (55 mg/kg/day in diet, 4 days) worked out at 85%.
As for `COC(=N)NC(=O)CN(C)C(=S)c1cccc2c(C(F)(F)F)c(OC)ccc12` [Compound 4, N-[[[[5-(Trifluoromethyl)-6-methoxy-1-naphthalenyl]thioxomethyl]methylamino]acetyl]carbamimidic Acid, Methyl Ester], the “% lowering dulcitol accumulation in vivo, D” value with accumulation of dulcitol (26 mg/kg/day in diet, 4 days) is recorded as 76%. Further, the “% lowering dulcitol accumulation in vivo, L” value in the experiment with accumulation of dulcitol (lens, 26 mg/kg/day in diet, 4 days) came out at 13%.
In the case of `COc1ccc2c(C(=S)N(C)CC(=O)NC(N)=O)cccc2c1C(F)(F)F` [Compound 5, [[[5-(Trifluoromethyl)-6-methoxy-1-naphthalenyl]thioxomethyl](methylamino)acetyl]urea], the “% lowering dulcitol accumulation in vivo, D” value in the experiment on accumulation of dulcitol (23 mg/kg/day in diet, 4 days) was 64%.
On to `COC(=O)NC(=O)CN(C)C(=S)c1cccc2c(C(F)(F)F)c(OC)ccc12` [Compound 6, [[[5-(Trifluoromethyl)-6-methoxy-1-naphthalenyl]thioxomethyl](methylamino)acetyl]carbamic acid, Methyl Ester], for which the “% lowering dulcitol accumulation in vivo, D” value with accumulation of dulcitol (8.4 mg/kg/day in diet, 4 days) stood at 69%; with accumulation of dulcitol (26 mg/kg/day in diet, 4 days) it was 88%.
For the compound `COc1ccc2c(C(=S)N(C)CC(=O)N[C@H]3C(O)O[C@H](CO)[C@@H](O)[C@@H]3O)cccc2c1C(F)(F)F` (stereo partly drawn) [Compound 7, 2-Deoxy-2-[[[[[6-methoxy-5-(trifluoromethyl)-1-naphthalenyl]thioxomethyl]methylamino]acetyl]amino]-D-glucose], the “% lowering dulcitol accumulation in vivo, D” value in the experiment on accumulation of dulcitol (161 mg/kg/day in diet, 4 days) was found to be 37%.
In the case of `O=C1NC(=O)[C@@]2(CCOc3ccc(F)cc32)N1` [sorbinil, (S)-6-Fluoro-2,3-dihydrospiro(4H-1-benzopyran-4,4'-imidazolidine)-2',5'-dione], the “inhibition of aldose reductase, as reported” value with aldose reductase is “aldose reductase inhibiting properties”.
